Test results reported in PubChem BioAssay AID248 (DTP/NCI, 2004).
Inconclusive results and toxic doses are left out. No stated cut-off is given here; in the data, active means T/C of 150% or more; inactive means T/C below 125%.

Tested on: L1210 leukemia ip in BDF1 mice, survival T/C
Test: NCI In Vivo Anticancer Drug Screen. Data for tumor model L1210 Leukemia (intraperitoneal) in B6D2F1 (BDF1) mice
Details: endpoint: mean survival time, higher = longer survival
Method in brief: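 In this screen, tumor-bearing mice given compound are compared to those given vehicle, and their survival values are reported as a treated-to-control quotient.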

[1] = dose: 100.0 mg/kg/injection, schedule: Q04DX003 (ip), vehicle: Klucel (hydroxypropylcellulose) (HPC)
[2] = dose: 200.0 mg/kg/injection, schedule: Q04DX003 (ip), vehicle: Klucel (hydroxypropylcellulose) (HPC)
[3] = dose: 400.0 mg/kg/injection, schedule: Q04DX003 (ip), vehicle: Klucel (hydroxypropylcellulose) (HPC)
[4] = dose: 100.0 mg/kg/injection, schedule: Q04DX002 (ip), vehicle: Klucel (hydroxypropylcellulose) (HPC)
[5] = dose: 200.0 mg/kg/injection, schedule: Q04DX002 (ip), vehicle: Klucel (hydroxypropylcellulose) (HPC)
[6] = dose: 100.0 mg/kg/injection, schedule: Q01DX009 (ip), vehicle: Klucel (hydroxypropylcellulose) (HPC)
[7] = dose: 200.0 mg/kg/injection, schedule: Q01DX009 (ip), vehicle: Klucel (hydroxypropylcellulose) (HPC)
[8] = dose: 100.0 mg/kg/injection, schedule: Q01DX001 (ip), vehicle: saline with Tween-80
[9] = dose: 200.0 mg/kg/injection, schedule: Q01DX001 (ip), vehicle: saline with Tween-80
[10] = dose: 400.0 mg/kg/injection, schedule: Q01DX001 (ip), vehicle: saline with Tween-80
[11] = dose: 100.0 mg/kg/injection, schedule: Q01DX009 (ip), vehicle: saline with Tween-80
[12] = dose: 100.0 mg/kg/injection, schedule: Q04DX003 (ip), vehicle: saline with Tween-80
[13] = dose: 200.0 mg/kg/injection, schedule: Q01DX009 (ip), vehicle: saline with Tween-80
[14] = dose: 200.0 mg/kg/injection, schedule: Q04DX003 (ip), vehicle: saline with Tween-80
[15] = dose: 400.0 mg/kg/injection, schedule: Q01DX009 (ip), vehicle: saline with Tween-80
[16] = dose: 400.0 mg/kg/injection, schedule: Q04DX003 (ip), vehicle: saline with Tween-80
[17] = dose: 200.0 mg/kg/injection, schedule: Q01DX001 (ip), vehicle: saline

Measured: T/C

CCCN(CCC)N=Nc1ccccc1-c1nc(N)c2ccccc2n1
inactive: [1] 106 % of control | [2] 98 % of control | [3] 101 % of control

C/C(C/C(C)=N\N=C(N)N)=N/N=C(N)N
inactive: dose: 15.0 mg/kg/injection, schedule: Q01DX Z (ip), vehicle: carboxymethylcellulose (CMC) 96 % of control | dose: 30.0 mg/kg/injection, schedule: Q01DX Z (ip), vehicle: carboxymethylcellulose (CMC) 98 % of control | dose: 60.0 mg/kg/injection, schedule: Q01DX Z (ip), vehicle: carboxymethylcellulose (CMC) 95 % of control | dose: 60.0 mg/kg/injection, schedule: Q01DX Z (oral), vehicle: carboxymethylcellulose (CMC) 90 % of control | dose: 120.0 mg/kg/injection, schedule: Q01DX Z (ip), vehicle: carboxymethylcellulose (CMC) 95 % of control | dose: 120.0 mg/kg/injection, schedule: Q01DX Z (oral), vehicle: carboxymethylcellulose (CMC) 90 % of control | dose: 240.0 mg/kg/injection, schedule: Q01DX Z (oral), vehicle: carboxymethylcellulose (CMC) 96 % of control | dose: 480.0 mg/kg/injection, schedule: Q01DX Z (oral), vehicle: carboxymethylcellulose (CMC) 96 % of control

CCCCCCCCNC12CC3CC(CC(C3)C1)C2
inactive: dose: 3.12 mg/kg/injection, schedule: Q01DX009 (ip), vehicle: saline 99 % of control | dose: 6.25 mg/kg/injection, schedule: Q01DX009 (ip), vehicle: saline 89 % of control | dose: 12.5 mg/kg/injection, schedule: Q01DX009 (ip), vehicle: saline 87 % of control | dose: 12.5 mg/kg/injection, schedule: Q04DX003 (ip), vehicle: saline 110 % of control | dose: 25.0 mg/kg/injection, schedule: Q01DX009 (ip), vehicle: saline 92 % of control | dose: 25.0 mg/kg/injection, schedule: Q04DX003 (ip), vehicle: saline 109 % of control

CNC(=O)Oc1cccc2c1C(=O)OC2=O
inactive: dose: 100.0 mg/kg/injection, schedule: Q01DX001 (ip), vehicle: other 93 % of control | dose: 100.0 mg/kg/injection, schedule: Q04DX003 (ip), vehicle: other 94 % of control | dose: 200.0 mg/kg/injection, schedule: Q01DX001 (ip), vehicle: other 90 % of control | dose: 200.0 mg/kg/injection, schedule: Q04DX003 (ip), vehicle: other 94 % of control | dose: 400.0 mg/kg/injection, schedule: Q04DX003 (ip), vehicle: other 98 % of control

CSc1cc2c(cc1NC(C)=O)C(=O)c1cc(F)ccc1-2
inactive: dose: 100.0 mg/kg/injection, schedule: Q01DX001 (ip), vehicle: carboxymethylcellulose (CMC) 98 % of control | dose: 200.0 mg/kg/injection, schedule: Q01DX001 (ip), vehicle: carboxymethylcellulose (CMC) 101 % of control | dose: 400.0 mg/kg/injection, schedule: Q01DX001 (ip), vehicle: carboxymethylcellulose (CMC) 95 % of control

O=C1OCC/C1=C\OCCCO/C=C1\CCOC1=O
inactive: [4] 100 % of control | [5] 87 % of control | dose: 400.0 mg/kg/injection, schedule: Q04DX002 (ip), vehicle: Klucel (hydroxypropylcellulose) (HPC) 97 % of control

[O-][n+]1ccccc1-c1ccccc1
inactive: dose: 50.0 mg/kg/injection, schedule: Q01DX009 (ip), vehicle: Klucel (hydroxypropylcellulose) (HPC) 104 % of control | [6] 101 % of control | [4] 104 % of control | [7] 118 % of control | [5] 107 % of control

CC(=O)OC(C1C[C@@]2(C)[C@@H](CC[C@@H]3[C@@H]2CC[C@]2(C)[C@@H](OC(C)=O)CC[C@@H]32)CC1=O)C(F)(F)F (some centres not stated)
inactive: dose: 50.0 mg/kg/injection, schedule: Q01DX009 (ip), vehicle: carboxymethylcellulose (CMC) 97 % of control | dose: 100.0 mg/kg/injection, schedule: Q01DX009 (ip), vehicle: carboxymethylcellulose (CMC) 89 % of control | dose: 200.0 mg/kg/injection, schedule: Q01DX009 (ip), vehicle: carboxymethylcellulose (CMC) 95 % of control

[Br][Sn]([Br])([c]1cccc2ccccc12)[c]1cccc2ccccc12
inactive: [8] 102 % of control | [9] 93 % of control | [10] 93 % of control

Cc1ccc(C(=O)N2C(=O)Cc3ccccc32)cc1
inactive: dose: 50.0 mg/kg/injection, schedule: Q04DX002 (ip), vehicle: Klucel (hydroxypropylcellulose) (HPC) 90 % of control | [4] 94 % of control | [5] 94 % of control

Cc1ncc2c(=O)n(-c3ccc(Br)cc3)[nH]c2n1
inactive: dose: 100.0 mg/kg/injection, schedule: Q04DX003 (ip), vehicle: gum acacia 96 % of control | dose: 200.0 mg/kg/injection, schedule: Q04DX003 (ip), vehicle: gum acacia 97 % of control | dose: 400.0 mg/kg/injection, schedule: Q04DX003 (ip), vehicle: gum acacia 92 % of control

CCCCCCCCCCCCCCCC(=O)N(CCCN)CCCCN(CCCN)C(=O)CCCCCCCCCCCCCCC
inactive: [8] 100 % of control | [11] 103 % of control | [12] 110 % of control | [9] 96 % of control | [13] 96 % of control | [14] 107 % of control | [10] 104 % of control | [15] 96 % of control | [16] 111 % of control

O=C1CC(=C2C(=O)c3ccccc3C2=O)c2ccccc21
inactive: [12] 95 % of control | [14] 97 % of control | [16] 106 % of control

CNC1(c2ccccc2)C(=O)CC2CCC1C2 (configuration not stated)
inactive: dose: 50.0 mg/kg/injection, schedule: Q04DX003 (ip), vehicle: saline 99 % of control | dose: 100.0 mg/kg/injection, schedule: Q01DX001 (ip), vehicle: saline 105 % of control | dose: 100.0 mg/kg/injection, schedule: Q04DX003 (ip), vehicle: saline 100 % of control | [17] 107 % of control

Cc1c(CN(C)C)cccc1C(=O)Nc1ccccc1
inactive: dose: 50.0 mg/kg/injection, schedule: Q01DX001 (ip), vehicle: saline 115 % of control | [17] 104 % of control

COc1ccc(CCN=Cc2ccc(Cl)cc2)cc1OC
inactive: [6] 104 % of control | [1] 93 % of control | [7] 95 % of control | [2] 96 % of control | dose: 400.0 mg/kg/injection, schedule: Q01DX009 (ip), vehicle: Klucel (hydroxypropylcellulose) (HPC) 95 % of control | [3] 103 % of control

CC(C)CC(=O)Nc1ccc(S(=O)(=O)Cl)cc1
inactive: [11] 106 % of control | [12] 92 % of control | [13] 101 % of control | [14] 86 % of control | [15] 94 % of control | [16] 89 % of control

Nc1cccc(OCCCCc2ccccc2)c1
inactive: [12] 101 % of control | [14] 95 % of control
